Patent US20060058320A1, “[1,2,4] Triazolo[1,5-c]pyrimidine derivatives” (KYOWA HAKKO KOGYO CO., LTD., priority 2002, published 2006)
Counter-ions that a name gives are not always drawn. Like-named read-outs stand apart in the source and are kept apart here.

Experiments:
[1] = tested on: CGS 21680-induced catalepsy; test: Activity on CGS 21680-induced catalepsy; format: in vivo, mice; conditions: for inhibition in vivo at 10 mg/kg: Mus musculus, po, read-out: Remission ratio (%); for Total score: total catalepsy score of 10 mice (maximum 50 points; 40 points or less = positive), one hour after administration
Method: Parkinson's disease is a motor disorder based on degeneration and cell death of the nigrostriatal dopaminergic neurons. When CGS 21680 (adenosine A2A receptor agonist) is administered into the intracerebral ventricle, the inhibitory synaptic transmission of GABA in the medium sized spiny neurons in the corpus striatum is inhibited directly via the adenosine A2A receptor [Journal of Neuroscience, vol. 16, p. 605 (1996)]. Accordingly, it is concidered that the adenosine A2A receptor agonists positively regulate the output of the GABAergic neurons from the corpus striatum to the globus pallidus lateralis, and, as a result, catalepsy is induced by the administration of CGS 21680.
The test was carried out using ten 5-week age male ddY mice (22-25 g in body weight, Japan SLC) per group. CGS 21680 (produced by RBI Co) was dissolved in physiological saline (produced by Otsuka Pharmaceutical Co., Ltd.), and 10 μg/20 μL of the solution was injected into mouse intracerebral ventricle. Each test compound was used by suspending it in distilled water containing 0.3% of polyoxylene (20) sorbitan monooleate (referred to as “Tween 80” hereinafter) (produced by Otsuka Pharmaceutical Co., Ltd.). The suspension containing each test compound or a solution containing no test Compound (distilled water containing 0.3% of Tween 80; used as a control) was orally administered (0.1 mL per 10 g of mouse body weight) 30 minutes before the injection of CGS 21680 into the intracerebral ventricle. One hour after the administration of the each test compound, only forelimbs or only hindlimbs of each mouse were laid on a vertically arranged stand made of acryl and having a size of 4.5 cm in height and 1.0 cm in width to measure catalepsy symptoms. All of the test compounds were administered orally in a dose of 10 mg/kg.
The criteria of the catalepsy score are shown below.
The effect was decided by a total catalepsy score of 10 mice in one group (the maximum score: 50 points). When the total score was 40 points or less, the activity of the compounds was decided positive. The number of the animals showing remission of catalepsy was expressed by the number of cases showing a catalepsy score of 4 points or less in 10 cases. The catalepsy remission ratio was expressed as the percentage of the total score in the test compound-administered group to the total score in the control group.

[2] = molecular target: T1, adenosine A2A receptor (Rattus norvegicus, UniProt P30543); test: Adenosine A2A receptor binding test (3H-CGS 21680 binding); conditions: for inhibition at 0.1 µM: read-out: A2A Receptor inhibition rate (%) at 10^−7 mol/L
T1 construct: from tissue; host or cells: rat corpus striatum membrane preparation
T1 sequence (P30543 whole entry): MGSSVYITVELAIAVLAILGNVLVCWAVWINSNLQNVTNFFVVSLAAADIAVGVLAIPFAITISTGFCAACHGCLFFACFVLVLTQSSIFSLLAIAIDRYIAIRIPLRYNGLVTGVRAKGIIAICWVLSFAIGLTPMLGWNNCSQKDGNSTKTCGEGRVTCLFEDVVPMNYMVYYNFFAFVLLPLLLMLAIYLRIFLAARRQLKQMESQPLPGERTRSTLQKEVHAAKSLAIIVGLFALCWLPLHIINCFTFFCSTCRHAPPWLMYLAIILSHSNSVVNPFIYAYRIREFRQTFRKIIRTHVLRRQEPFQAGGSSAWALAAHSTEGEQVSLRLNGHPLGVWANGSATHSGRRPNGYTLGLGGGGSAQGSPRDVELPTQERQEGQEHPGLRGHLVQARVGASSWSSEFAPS
Method: The test was carried out according to the method of Bruns et al. [Molecular Pharmacology, vol. 29, p.
Rat corpus striatum was suspended in an ice-cold 50 mmol/L tris(hydroxymethyl)aminomethane hydrochloride (referred to as “Tris HCl” hereinafter) buffer (pH 7.7) using a Polytron homogenizer (produced by Kinematica Co.). The suspension was centrifuged (50,000×g, 10 minutes), and the resulting precipitate was again suspended in the same amount of a 50 mmol/L Tris HCl buffer, followed by centrifugation under the same conditions. The resulting finalprecipitate was again suspended in a 50 mmol/L-Tris HCl buffer [containing 10 mmol/L of magnesium chloride and 0.02 unit/mg tissue of adenosine deaminase (produced by Sigma Co.)] so that the tissue concentration was 5 mg (wet weight)/mL.
The radioactivity on the filter was determined with a liquid scintillation counter (produced by Packard Instrument Co.).
In the equation, X represents Amount of binding in the presence of a medicament, Y represents Amount of nonspecific binding, and Z represents Amount of total binding.

[3] = from total score of test group and control group, 10 mg/kg orally
[4] = test compound 10^−7 mol/L, 3H-CGS 21680 binding, rat corpus striatum

| SMILES | inhibition in vivo at 10 mg/kg [1, 3] [%] | Total score ([1]; 10 mg/kg orally) | inhibition at 0.1 µM [2, 4] [%] | further results |
| --- | --- | --- | --- | --- |
| Nc1nc(C(=O)c2ccc(F)cc2)cc2nc(-c3ccco3)nn12 [Compound 40, 5-Amino-7-(4-fluorobenzoyl)-2-(2-furyl)[1,2,4]triazolo-[1,5-c]pyrimidine] | 94 | 3 | 58 |  |
| COc1cc(CNCc2cc3nc(-c4ccco4)nn3c(N)n2)cc(OC)c1 [Compound 43, 5-Amino-7-[(3,5-dimethoxybenzylamino)methyl]-2-(2-furyl)-[1,2,4]triazolo[1,5-c]pyrimidine dihydrochloride] |  |  | 60 |  |
| Nc1nc(CNCCc2ccccn2)cc2nc(-c3ccco3)nn12 [Compound 44, 5-Amino-7-[2-(2-pyridyl)ethylaminomethyl]-2-(2-furyl)-[1,2,4]triazolo[1,5-c]pyrimidine dihydrochloride] |  |  | 56 |  |
| COCCN1CCN(Cc2cc3nc(-c4ccco4)nn3c(N)n2)CC1 [Compound 49, 5-Amino-2-(2-furyl)-7-[4-(2-methoxyethyl)piperazin-1-yl-methyl][1,2,4]triazolo[1,5-c]pyrimidine dihydrochloride] |  | 4 | 89 | inhibition in vivo at 10 mg/kg [1]: 92% |
| Nc1nc(CN2CCN(CC3CC3)CC2)cc2nc(-c3ccco3)nn12 [Compound 50, 5-Amino-7-[4-(cyclopropylmethyl)piperazin-1-ylmethyl]-2-(2-furyl)[1,2,4]triazolo[1,5-c]pyrimidine dihydrochloride] |  |  | 65 |  |
| Nc1nc(-c2cc3nc(-c4ccco4)nn3c(N)n2)cs1 [Compound 58, 5-Amino-7-(2-aminothiazol-4-yl)-2-(2-furyl)-[1,2,4]triazolo-[1,5-c]pyrimidine] | 80 | 10 | 70 |  |
| Nc1nc(/C=C/CNCC2CC2)cc2nc(-c3ccco3)nn12 [Compound 68, 5-Amino-7-[3-(cyclopropylmethylamino)-(E)-propan-1-en-1-yl]-2-(2-furyl)[1,2,4]triazolo[1,5-c]pyrimidine] |  |  | 96 |  |
| Nc1nc(C#CC2(O)CCCC2)cc2nc(-c3ccco3)nn12 [Compound 69, 5-Amino-2-(2-furyl)-7-[2-(1-hydroxycyclopentyl)ethynyl][1,2,4]triazolo[1,5-c]pyrimidine] | 96 | 2 | 78 |  |
| COCCN1CC=C(c2cc3nc(-c4ccco4)nn3c(N)n2)CC1 [Compound 73, 5-Amino-2-(2-furyl)-7-[1-(2-methoxyethyl)-1,2,3,6-tetra-hydropyridin-4-yl][1,2,4]triazolo[1,5-c]pyrimidine] |  | 6 |  | inhibition in vivo at 10 mg/kg [1]: 88%; inhibition at 0.1 µM [2]: 98% |
| CCN(Cc1ccccc1)C(=O)c1cc2nc(-c3ccco3)nn2c(N)n1 [Compound 99, 5-Amino-2-(2-furyl)[1,2,4]triazolo[1,5-c]pyrimidine-7-carboxylic acid (N-benzyl-N-ethyl)amide] |  |  | 69 |  |
| CN(Cc1ccco1)C(=O)c1cc2nc(-c3ccco3)nn2c(N)n1 [Compound 101, 5-Amino-2-(2-furyl)[1,2,4]triazolo[1,5-c]pyrimidine-7-carboxylic acid [N-(2-furylmethyl)-N-methyl]amide] |  |  | 83 |  |
| N#CCCN(Cc1cccnc1)C(=O)c1cc2nc(-c3ccco3)nn2c(N)n1 [Compound 103, 5-Amino-2-(2-furyl)[1,2,4]triazolo[1,5-c]pyrimidine-7-carboxylic acid [N-(2-cyanoethyl)-N-(3-pyridylmethyl)]amide] |  |  | 54 |  |
| CN(Cc1ccc2c(c1)OCO2)C(=O)c1cc2nc(-c3ccco3)nn2c(N)n1 [Compound 107, 5-Amino-2-(2-furyl)[1,2,4]triazolo[1,5-c]pyrimidine-7-carboxylic acid [N-(1,3-benzodioxol-5-ylmethyl)-N-methyl]amide monohydrochloride] | 90 | 5 | 71 |  |
| COc1ccc(CN(C)C(=O)c2cc3nc(-c4ccco4)nn3c(N)n2)cc1 [Compound 108, 5-Amino-2-(2-furyl)[1,2,4]triazolo[1,5-c]pyrimidine-7-caroboxylic acid [N-(4-methoxybenzyl)-N-methyl]amide monohydrochloride] | 96 | 2 | 65 |  |
| CN(Cc1ccnc2ccccc12)C(=O)c1cc2nc(-c3ccco3)nn2c(N)n1 [Compound 113, 5-Amino-2-(2-furyl)[1,2,4]triazolo[1,5-c]pyrimidine-7-carboxylic acid [N-methyl-N-(4-quinolylmethyl)]amide] | 76 | 12 | 66 |  |
| CC(C)N(Cc1ccn(C)c1)C(=O)c1cc2nc(-c3ccco3)nn2c(N)n1 [Compound 116, 5-Amino-2-(2-furyl)[1,2,4]triazolo[1,5-c]pyrimidine-7-carboxylic acid [N-isopropyl-N-(1-methylpyrrol-3-ylmethyl)]amide] |  | 9 |  | Number of animals showing remission ([1]; cases with catalepsy score of 4 points or less in 10 cases, 10 mg/kg orally): 9; Remission ratio (%) [1, 3]: 82%; A2A Receptor inhibition rate (%) at 10^−7 mol/L [2, 4]: 62% |
| CN(Cc1cccc(F)c1)C(=O)c1cc2nc(-c3ccco3)nn2c(N)n1 [Compound 120, 5-Amino-2-(2-furyl)[1,2,4]triazolo[1,5-c]pyrimidine-7-carboxylic acid [N-(3-fluorobenzyl)-N-methyl]amide monohydrochloride] |  |  | 61 |  |
| CN(Cc1ccccc1Cl)C(=O)c1cc2nc(-c3ccco3)nn2c(N)n1 [Compound 122, 5-Amino-2-(2-furyl)[1,2,4]triazolo[1,5-c]pyrimidine-7-carboxylic acid [N-(2-chlorobenzyl)-N-methyl]amide monohydrochloride] | 80 | 10 | 74 |  |
| CN(Cc1cccnc1Cl)C(=O)c1cc2nc(-c3ccco3)nn2c(N)n1 [Compound 128, 5-Amino-2-(2-furyl)[1,2,4]triazolo[1,5-c]pyrimidine-7-carboxylic acid [N-(2-chloropyridin-3-ylmethyl)-N-methyl]-amide] |  |  | 59 |  |
| Cc1ncccc1CN(C)C(=O)c1cc2nc(-c3ccco3)nn2c(N)n1 [Compound 134, 5-Amino-2-(2-furyl)[1,2,4]triazolo[1,5-c]pyrimidine-7-carboxylic acid [N-methyl-N-(2-methylpyridin-3-ylmethyl)]-amide] |  |  | 60 |  |
| Nc1nc(C(=O)N2CCCCC2)cc2nc(-c3ccco3)nn12 [Compound 142, 5-Amino-2-(2-furyl)[1,2,4]triazolo[1,5-c]pyrimidin-7-yl piperidino ketone] |  |  | 71 |  |
| CC1CCCN(C(=O)c2cc3nc(-c4ccco4)nn3c(N)n2)C1 (centres unmarked) [Compound 145, 5-Amino-2-(2-furyl)[1,2,4]triazolo[1,5-c]pyrimidin-7-yl 3-methylpiperidino ketone] |  |  |  | inhibition at 0.1 µM [2]: 60% |
| Nc1nc(C(=O)N2CCCC2)cc2nc(-c3ccco3)nn12 [Compound 148, 5-Amino-2-(2-furyl)[1,2,4]triazolo[1,5-c]pyrimidin-7-yl pyrrolidinyl ketone] |  |  |  | A2A Receptor inhibition rate (%) at 10^−7 mol/L [2, 4]: 75% |
